# Test system: RAW264.7 macrophages
# Experiment: In vitro viability assay of NPs (AlamarBlue)
# Type: cell-based, murine
# Conditions: RAW264.7, 24 h, all concentrations tested (NPs 0.011-0.25 mg/ml; free Dx at the concentration encapsulated); % respect to the control
# Procedure: The RAW264.7 (murine macrophages) cell line was purchased from Sigma-Aldrich. RAW264.7 cells are an in vitro model useful to test the potential anti-inflammatory activity of new drugs. Cells were maintained over permissive conditions in high-glucose Dulbecco's modified Eagle's medium (DMEM; Sigma, Saint Louis, MO, USA) supplemented with 10% fetal bovine serum (FBS; Gibco, BRL), 2% L-Glutamine (Sigma, Saint Louis, MO, USA) and Penicillin-G (Sigma, Saint Louis, MO, USA) at 37 °C in a humidified incubator with 10% CO2.
# 2 x 10^5 live cells/mL (100 µL per well) were seeded in a 96 well-plate under permissive conditions. After 24 h, cells were exposed to different concentrations of free Dx and Dx-loaded or unloaded NSAID-based NPs suspension (0.25, 0.125, 0.09, 0.045, 0.023 and, 0.011 mg/ml) and cell viability was determined after 24 h of incubation with NPs. AlamarBlue (Invitrogen) was used to determine cell viability. Absorbance at 570 nm was measured by a Multi-Detection Microplate Reader Synergy HT (BioTek Instruments; Vermont, USA). The treatments were done in replicates (n = 8). Results of the experiments were expressed as percentage of relative cell viability (% respect to the control).
smiles,measurement,value
"C[C@@H]1C[C@H]2[C@@H]3CCC4=CC(=O)C=C[C@]4(C)[C@@]3(F)[C@@H](O)C[C@]2(C)[C@@]1(O)C(=O)CO [free Dx, Dexamethasone]",cell viability,higher than 70%

# — patent publication EP3884963A1, “NAPROXEN/DEXAMETHASONE-BASED NANOPARTICLES” (Consejo Superior de Investigaciones Científicas (CSIC), priority 2020, dated 2021)
